Article PMC9296036, “A peptide interfering with the dimerization of oncogenic KITENIN protein and its stability suppresses colorectal tumour progression” (Clinical and Translational Medicine, 2022)
Ends that are not written are not given here.

How the values were obtained:
CT-26/iRFP/KITENIN cells = test: Transwell cell invasion assay, CT-26/iRFP/KITENIN or CT-26/KITENIN-V5 cells; format: cell-based, mouse; conditions: increasing doses of KDIP, compared with scramble peptide
[1] = Detection of KDIP and truncated forms in tumour and liver tissue by LC-MS/MS (MRM) after intravenous injection; format: in vivo, mouse; conditions: tissues collected 20 min after fifth intravenous injection of KDIP 5 mg/kg, below the limit of detection
Method: At 20 min after fifth intravenous injection of KDIP, tumour and liver tissues were collected, immediately frozen using liquid nitrogen and ground with a pestle and mortar. One part of resultant powder by weight was homogenized with two parts of lysis buffer containing 8‐M urea, 25‐mM Tris–HCl (pH 8.5) by volume and was placed in Eppendorf tubes. This lysate was sonicated three times for 2 s with 2‐s intervals of rest at 20% amplitude on ice. Insoluble debris was removed by obtaining supernatant after centrifugation at 14 000 g, 4°C for 15 min.
Peptide extraction from serum or tissue lysate was performed by solid‐phase extraction using Oasis HLB Cartridge 1‐cm^3 (30 mg). HLB cartridges were conditioned using ACN (1 ml) and 50% ACN, .5% FA (1 ml), followed by equilibration using .5% FA (2 ml). A volume of 10‐μl serum and 20 μl of tissue lysate were added by .5% FA to be 1 ml and were loaded on equilibrated cartridges. Cartridges were washed with .5% FA (3 ml), and then peptide was eluted by 50% ACN, .5% FA (500 μl). Eluates were vacuum‐dried using Speed‐Vac and were stored at −80°C until use. Dried samples were reconstituted in .5% FA 50 and 5 μl of sample was loaded on column for LC–MS/MS analysis.
Each sample was analysed using an Agilent 1100 Series high‐performance liquid chromatography pump (Agilent Technologies, USA) coupled to an LTQ linear ion trap mass spectrometer (Thermo Finnigan, USA). Separation of peptide was carried out on a homemade C18‐fused silica column (100‐μm internal diameter) with nano‐electrospray ionization interface. […] Peptide was quantified by multiple reaction monitoring (MRM) in positive ion mode, with a spray voltage of 2.3 kV. […] Furthermore, truncated forms ([…], […]) of KDIP that were detected during stability test were also analysed by following transitions: 468.5 → 404.8 (b16 ^+5), 468.5 → 444.85 (b18 ^+5), 468.5 → 505.7 (b16 ^+4), 468.5 → 551.35 (b18 + H2O^+4), 468.5 → 555.7 (b18 ^+4), 528.45 → 448.85 (b14 ^+4), 528.45 → 499.0 (b16 ^+4), 528.45 → 598.15 (b14 ^+3), 528.45 → 659.25 (b16 + H2O^+3) and 528.45 → 664.95 (b16 ^+3). […]

YARVRRRGPRRWRLVSDEAV [KDIP]
cell invasion of CT-26/KITENIN-V5 cells (in words) (CT-26/iRFP/KITENIN cells): significantly reduced | detection in regressed tumour tissues or liver by mass spectrometry [1]: not detected
